Values quoted from earlier work in PubChem BioAssay AID1259409 (Chemical Carcinogenesis Research Information System (CCRIS), 2018).

Test system: rodent chemically induced tumor inhibition, incidence and multiplicity
Assay: CCRIS tumor inhibitor studies
Conditions: Dose [Inhibitor]: 0, Route [Inhibitor]: ORAL, Species: MOUSE

Row | SMILES | tumour outcome (control, treated, inhibition, significance) (6 PPM IN DIET BEGINNING 6 WK POST CARCINOGEN DOSE AND CONTINUING FOR 65 WK (STUDY DURATION: 65 WK), Strain/Sex: B6C3F1/FEMALE, Target Tissue: Type of Lesion: LIVER: TUMOR, Dose [Carcinogen]: 6 MG/KG ONCE, Promoter: NONE USED) | tumour outcome (control, treated, inhibition, significance) (6 PPM IN PELLET DIET FOR 1 YR BEGINNING 7 WK POST CARCINOGEN (STUDY DURATION: 60 WK), Strain/Sex: B6C3F1/FEMALE, Target Tissue: Type of Lesion: LIVER: HEPATOCELLULAR ADENOMA, Dose [Carcinogen]: 6 MG/KG ONCE) | tumour outcome (control, treated, inhibition, significance) (6 PPM IN PELLET DIET FOR 1 YR BEGINNING 7 WK POST CARCINOGEN (STUDY DURATION: 60 WK), Strain/Sex: B6C3F1/FEMALE, Target Tissue: Type of Lesion: LIVER: HEPATOCELLULAR TUMOR, Dose [Carcinogen]: 6 MG/KG ONCE) | tumour outcome (control, treated, inhibition, significance) (12 PPM IN DIET BEGINNING 6 WK POST CARCINOGEN DOSE AND CONTINUING FOR 65 WK (STUDY DURATION: 65 WK), Strain/Sex: B6C3F1/FEMALE, Target Tissue: Type of Lesion: LIVER: TUMOR, Dose [Carcinogen]: 6 MG/KG ONCE, Promoter: NONE USED) | tumour outcome (control, treated, inhibition, significance) (12 PPM IN DIET BEGINNING 6 WK POST CARCINOGEN DOSE AND CONTINUING FOR 65 WK (STUDY DURATION: 65 WK), Strain/Sex: B6C3F1/MALE, Target Tissue: Type of Lesion: LIVER: TUMOR, Dose [Carcinogen]: 6 MG/KG ONCE, Promoter: NONE USED) | tumour outcome (control, treated, inhibition, significance) (12 PPM IN DIET FOR 1 YR BEGINNING 7 WK POST CARCINOGEN (STUDY DURATION: 60 WK), Strain/Sex: B6C3F1/MALE, Target Tissue: Type of Lesion: LIVER: HEPATOCELLULAR CARCINOMA, Dose [Carcinogen]: 6 MG/KG ONCE) | tumour outcome (control, treated, inhibition, significance) (12 PPM IN PELLET DIET FOR 1 YR BEGINNING 7 WK POST CARCINOGEN (STUDY DURATION : 60 WK), Strain/Sex: B6C3F1/FEMALE, Target Tissue: Type of Lesion: LIVER: HEPATOCELLULAR ADENOMA, Dose [Carcinogen]: 6 MG/KG ONCE) | tumour outcome (control, treated, inhibition, significance) (12 PPM IN PELLET DIET FOR 1 YR BEGINNING 7 WK POST CARCINOGEN (STUDY DURATION : 60 WK), Strain/Sex: B6C3F1/FEMALE, Target Tissue: Type of Lesion: LIVER: HEPATOCELLULAR CARCINOMA, Dose [Carcinogen]: 6 MG/KG ONCE) | tumour outcome (control, treated, inhibition, significance) (12 PPM IN PELLET DIET FOR 1 YR BEGINNING 7 WK POST CARCINOGEN (STUDY DURATION : 60 WK), Strain/Sex: B6C3F1/FEMALE, Target Tissue: Type of Lesion: LIVER: HEPATOCELLULAR TUMOR, Dose [Carcinogen]: 6 MG/KG ONCE) | tumour outcome (control, treated, inhibition, significance) (12 PPM IN PELLET FOR 1 YR BEGINNING 7 WK POST CARCINOGEN (STUDY DURATION: 60 WK), Strain/Sex: B6C3F1/MALE, Target Tissue: Type of Lesion: LIVER: HEPATOCELLULAR TUMOR, Dose [Carcinogen]: 6 MG/KG ONCE) | tumour outcome (control, treated, inhibition, significance) (Carcinogen: BENZO[A]PYRENE, 50-32-8, 3.8 UMOL/G DIET BEGINNING 1 WK PRIOR TO CARCINOGEN TREATMENT AND CONTINUING FOR 1 WK POST CARCINOGEN TREATMENT FOLLOW, Strain/Sex: CD-1/FEMALE, Target Tissue: Type of Lesion: FORESTOMACH: PAPILLOMA, Dose [Carcinogen]: 1 MG IN 0.2 ML CORN OIL 2/WK FOR 4 WK, Promoter: NONE USED)
1 | CC1=C[C@H]2O[C@@H]3[C@H](O)[C@@H](O)[C@](C)([C@@]2(CO)[C@H](O)C1=O)[C@]31CO1 | 8/26 (31%), 3/15 (20%), 35%, not significant | 6/26 (23%), 1/15 (7%), 70%, not calculated | 8/26 (31%), 3/15 (20%), 35%, not significant | 8/26 (31%), 0/19 (0%), 100%, p<0.01 | 19/19 (100%), 18/18 (100%), 0%, not significant | 17/19 (89%), 15/18 (83%), 7%, not calculated | 6/26 (23%), 0/19 (0%), 100%, not calculated | 1/26 (4%), 0/19 (0%), 100%, not calculated | 8/26 (31%), 0/19 (0%), 100%, p<0.01 | 19/19 (100%), 18/18 (100%), 0%, not significant | –
2 | c1ccc2c(c1)Nc1ccccc1S2 | – | – | – | – | – | – | – | – | – | – | 85%, 100%, -18%, not significant
